ChEMBL document CHEMBL5724806, “Unraveling interindividual differences and functional consequences of gut microbial metabolism of immunosuppressants” (2024)

What was measured:
Format in all cases: ADME
[1] = The drug is tested on Collinsella aerofaciens strain: DSM3979 for biotransformation under anaerobic condition. The drug concentrations were measured over 6 timepoints collected between 0 and 12 hours of incubation by liquid-chromatography-coupled mass spectrometry (LC–MS); design: dose 5 uM, timepoint 0, 1.5, 3, 6, 9, 12 hours; details: 5 µM
[2] = The drug is tested on the gut metagenome community of A-08 with ENA study accession number: PRJEB31790 for biotransformation under anaerobic condition. The drug concentrations were measured over 7 timepoints collected between 0 and 12 hours of incubation by liquid-chromatography-coupled mass spectrometry (LC–MS); design: dose 5 uM, timepoint 0, 0.75, 1.5, 3, 6, 9, 12 hours; details: 5 µM
[3] = The drug is tested on the gut metagenome community of A-05 with ENA study accession number: PRJEB31790 for biotransformation under microaerobic condition. The drug concentrations were measured over 7 timepoints collected between 0 and 12 hours of incubation by liquid-chromatography-coupled mass spectrometry (LC–MS); design: dose 5 uM, timepoint 0, 0.75, 1.5, 3, 6, 9, 12 hours; details: 5 µM
[4] = The drug is tested on the gut metagenome community of A-08 with ENA study accession number: PRJEB31790 for biotransformation under microaerobic condition. The drug concentrations were measured over 7 timepoints collected between 0 and 12 hours of incubation by liquid-chromatography-coupled mass spectrometry (LC–MS); design: dose 5 uM, timepoint 0, 0.75, 1.5, 3, 6, 9, 12 hours; details: 5 µM
[5] = The drug is tested on Streptococcus sanguinis strain: DSM20567 for biotransformation under microaerobic condition. The drug concentrations were measured over 6 timepoints collected between 0 and 12 hours of incubation by liquid-chromatography-coupled mass spectrometry (LC–MS); design: dose 5 uM, timepoint 0, 1.5, 3, 6, 9, 12 hours; details: 5 µM
[6] = The drug is tested on the gut metagenome community of T-05 with ENA study accession number: PRJEB31790 for biotransformation under anaerobic condition. The drug concentrations were measured over 7 timepoints collected between 0 and 12 hours of incubation by liquid-chromatography-coupled mass spectrometry (LC–MS); design: dose 5 uM, timepoint 0, 0.75, 1.5, 3, 6, 9, 12 hours; details: 5 µM
[7] = The drug is tested on the gut metagenome community of P-01 with ENA study accession number: PRJEB31790 for biotransformation under microaerobic condition. The drug concentrations were measured over 7 timepoints collected between 0 and 12 hours of incubation by liquid-chromatography-coupled mass spectrometry (LC–MS); design: dose 5 uM, timepoint 0, 0.75, 1.5, 3, 6, 9, 12 hours; details: 5 µM
[8] = The drug is tested on the gut metagenome community of T-04 with ENA study accession number: PRJEB31790 for biotransformation under anaerobic condition. The drug concentrations were measured over 7 timepoints collected between 0 and 12 hours of incubation by liquid-chromatography-coupled mass spectrometry (LC–MS); design: dose 5 uM, timepoint 0, 0.75, 1.5, 3, 6, 9, 12 hours; details: 5 µM
[9] = The drug is tested on Streptococcus anginosus strain: DSM20563 for biotransformation under anaerobic condition. The drug concentrations were measured over 6 timepoints collected between 0 and 12 hours of incubation by liquid-chromatography-coupled mass spectrometry (LC–MS); design: dose 5 uM, timepoint 0, 1.5, 3, 6, 9, 12 hours; details: 5 µM
[10] = The drug is tested on Enterococcus faecalis strain: ATCC29212 for biotransformation under microaerobic condition. The drug concentrations were measured over 6 timepoints collected between 0 and 12 hours of incubation by liquid-chromatography-coupled mass spectrometry (LC–MS); design: dose 5 uM, timepoint 0, 1.5, 3, 6, 9, 12 hours; details: 5 µM
[11] = The drug is tested on Actinomyces naeslundi strain: DSM43013 for biotransformation under anaerobic condition. The drug concentrations were measured over 6 timepoints collected between 0 and 12 hours of incubation by liquid-chromatography-coupled mass spectrometry (LC–MS); design: dose 5 uM, timepoint 0, 1.5, 3, 6, 9, 12 hours; details: actinomyces naeslundii, 5 µM
[12] = The drug is tested on Lactobacillus paracasei strain: ATCC27092 for biotransformation under microaerobic condition. The drug concentrations were measured over 6 timepoints collected between 0 and 12 hours of incubation by liquid-chromatography-coupled mass spectrometry (LC–MS); design: dose 5 uM, timepoint 0, 1.5, 3, 6, 9, 12 hours; details: lacticaseibacillus paracasei, 5 µM
[13] = The drug is tested on Bacteroides vulgatus strain: DSM1447 for biotransformation under anaerobic condition. The drug concentrations were measured over 6 timepoints collected between 0 and 12 hours of incubation by liquid-chromatography-coupled mass spectrometry (LC–MS); design: dose 5 uM, timepoint 0, 1.5, 3, 6, 9, 12 hours; details: phocaeicola vulgatus, 5 µM
[14] = The drug is tested on Eubacterium rectale strain: DSM17629 for biotransformation under anaerobic condition. The drug concentrations were measured over 6 timepoints collected between 0 and 12 hours of incubation by liquid-chromatography-coupled mass spectrometry (LC–MS); design: dose 5 uM, timepoint 0, 1.5, 3, 6, 9, 12 hours; details: agathobacter rectalis, 5 µM
[15] = The drug is tested on the gut metagenome community of A-04 with ENA study accession number: PRJEB31790 for biotransformation under anaerobic condition. The drug concentrations were measured over 7 timepoints collected between 0 and 12 hours of incubation by liquid-chromatography-coupled mass spectrometry (LC–MS); design: dose 5 uM, timepoint 0, 0.75, 1.5, 3, 6, 9, 12 hours; details: 5 µM
[16] = The drug is tested on the gut metagenome community of A-02 with ENA study accession number: PRJEB31790 for biotransformation under microaerobic condition. The drug concentrations were measured over 7 timepoints collected between 0 and 12 hours of incubation by liquid-chromatography-coupled mass spectrometry (LC–MS); design: dose 5 uM, timepoint 0, 0.75, 1.5, 3, 6, 9, 12 hours; details: 5 µM
[17] = The drug is tested on the gut metagenome community of A-07 with ENA study accession number: PRJEB31790 for biotransformation under anaerobic condition. The drug concentrations were measured over 7 timepoints collected between 0 and 12 hours of incubation by liquid-chromatography-coupled mass spectrometry (LC–MS); design: dose 5 uM, timepoint 0, 0.75, 1.5, 3, 6, 9, 12 hours; details: 5 µM
[18] = The drug is tested on Bifidobacterium adolescentis strain: DSM20083 for biotransformation under anaerobic condition. The drug concentrations were measured over 6 timepoints collected between 0 and 12 hours of incubation by liquid-chromatography-coupled mass spectrometry (LC–MS); design: dose 5 uM, timepoint 0, 1.5, 3, 6, 9, 12 hours; details: 5 µM
[19] = The drug is tested on the gut metagenome community of A-07 with ENA study accession number: PRJEB31790 for biotransformation under microaerobic condition. The drug concentrations were measured over 7 timepoints collected between 0 and 12 hours of incubation by liquid-chromatography-coupled mass spectrometry (LC–MS); design: dose 5 uM, timepoint 0, 0.75, 1.5, 3, 6, 9, 12 hours; details: 5 µM
[20] = The drug is tested on the gut metagenome community of A-01 with ENA study accession number: PRJEB31790 for biotransformation under anaerobic condition. The drug concentrations were measured over 7 timepoints collected between 0 and 12 hours of incubation by liquid-chromatography-coupled mass spectrometry (LC–MS); design: dose 5 uM, timepoint 0, 0.75, 1.5, 3, 6, 9, 12 hours; details: 5 µM
[21] = The drug is tested on Lactobacillus reuteri strain: DSM20016 for biotransformation under anaerobic condition. The drug concentrations were measured over 6 timepoints collected between 0 and 12 hours of incubation by liquid-chromatography-coupled mass spectrometry (LC–MS); design: dose 5 uM, timepoint 0, 1.5, 3, 6, 9, 12 hours; details: limosilactobacillus reuteri, 5 µM
[22] = The drug is tested on Alloscardovia omnicolens strain: DSM21503 for biotransformation under microaerobic condition. The drug concentrations were measured over 6 timepoints collected between 0 and 12 hours of incubation by liquid-chromatography-coupled mass spectrometry (LC–MS); design: dose 5 uM, timepoint 0, 1.5, 3, 6, 9, 12 hours; details: 5 µM
[23] = The drug is tested on Actinomyces graevenitzii strain: DSM15540 for biotransformation under microaerobic condition. The drug concentrations were measured over 6 timepoints collected between 0 and 12 hours of incubation by liquid-chromatography-coupled mass spectrometry (LC–MS); design: dose 5 uM, timepoint 0, 1.5, 3, 6, 9, 12 hours; details: 5 µM
[24] = The drug is tested on Gemella morbillorum strain: DSM20572 for biotransformation under microaerobic condition. The drug concentrations were measured over 6 timepoints collected between 0 and 12 hours of incubation by liquid-chromatography-coupled mass spectrometry (LC–MS); design: dose 5 uM, timepoint 0, 1.5, 3, 6, 9, 12 hours; details: 5 µM
[25] = The drug is tested on the gut metagenome community of P-03 with ENA study accession number: PRJEB31790 for biotransformation under microaerobic condition. The drug concentrations were measured over 7 timepoints collected between 0 and 12 hours of incubation by liquid-chromatography-coupled mass spectrometry (LC–MS); design: dose 5 uM, timepoint 0, 0.75, 1.5, 3, 6, 9, 12 hours; details: 5 µM

Compound	Bacterial Biotransformation [1]	Bacterial Biotransformation [2]	Bacterial Biotransformation [3]	Bacterial Biotransformation [4]	Bacterial Biotransformation [5]	Bacterial Biotransformation [6]	Bacterial Biotransformation [7]	Bacterial Biotransformation [8]	Bacterial Biotransformation [9]	Bacterial Biotransformation [10]	Bacterial Biotransformation [11]	Bacterial Biotransformation [12]	Bacterial Biotransformation [13]	Bacterial Biotransformation [14]	Bacterial Biotransformation [15]	Bacterial Biotransformation [16]	Bacterial Biotransformation [17]	Bacterial Biotransformation [18]	Bacterial Biotransformation [19]	Bacterial Biotransformation [20]	other results
CCOC(=O)C1=C(COCCN)NC(C)=C(C(=O)OC)C1c1ccccc1Cl (stereo not given) [AMLODIPINE]	Compound NOT metabolized	Compound NOT metabolized	Compound NOT metabolized	Compound NOT metabolized	Compound NOT metabolized	Compound NOT metabolized	Compound NOT metabolized	Compound NOT metabolized	Compound NOT metabolized	Compound metabolized	Compound NOT metabolized	Compound NOT metabolized	Compound NOT metabolized	Compound NOT metabolized	Compound NOT metabolized	Compound metabolized	Compound NOT metabolized	Compound NOT metabolized	Compound NOT metabolized	Compound NOT metabolized	Bacterial Biotransformation [21]: Compound NOT metabolized; Bacterial Biotransformation [22]: Compound NOT metabolized; Bacterial Biotransformation [23]: Compound NOT metabolized; Bacterial Biotransformation [24]: Compound NOT metabolized; Bacterial Biotransformation [25]: Compound NOT metabolized
CC(C)NCC(O)COc1ccc(CC(N)=O)cc1 (stereo not given) [ATENOLOL]	Compound NOT metabolized	Compound NOT metabolized	Compound NOT metabolized	Compound NOT metabolized	Compound NOT metabolized	Compound NOT metabolized	Compound NOT metabolized	Compound NOT metabolized	Compound NOT metabolized	Compound NOT metabolized	Compound NOT metabolized	Compound NOT metabolized	Compound NOT metabolized	Compound NOT metabolized	Compound NOT metabolized	Compound NOT metabolized	Compound NOT metabolized	Compound NOT metabolized	Compound NOT metabolized	Compound NOT metabolized	Bacterial Biotransformation [21]: Compound NOT metabolized; Bacterial Biotransformation [22]: Compound NOT metabolized; Bacterial Biotransformation [23]: Compound NOT metabolized; Bacterial Biotransformation [24]: Compound NOT metabolized; Bacterial Biotransformation [25]: Compound NOT metabolized
